From PubChem BioAssay (NCI)
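Five concentrations, 48 hours, 96-well plates. TGI denotes the concentration required for complete inhibition of growth.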

What was measured:
Test in all cases: NCI anticancer screen, dose series, 48 h
SR leukemia = system: SR leukemia
PC-3 prostate = system: PC-3 prostate
NCI-H23 lung = system: NCI-H23 lung
UACC-257 melanoma = system: UACC-257 melanoma
NCI/ADR-RES ovarian = system: NCI/ADR-RES ovarian
KM12 colon = system: KM12 colon
RPMI-8226 leukemia = system: RPMI-8226 leukemia
BT-549 breast = system: BT-549 breast
SW-620 colon = system: SW-620 colon
786-0 renal = system: 786-0 renal
SF-268 CNS = system: SF-268 CNS
SK-OV-3 ovarian = system: SK-OV-3 ovarian
MOLT-4 leukemia = system: MOLT-4 leukemia

Row | SMILES | TGI (SR leukemia) [µM] | TGI (PC-3 prostate) [µM] | TGI (NCI-H23 lung) [µM] | TGI (UACC-257 melanoma) [µM] | TGI (NCI/ADR-RES ovarian) [µM] | TGI (KM12 colon) [µM] | TGI (RPMI-8226 leukemia) [µM] | TGI (BT-549 breast) [µM] | TGI (SW-620 colon) [µM] | TGI (786-0 renal) [µM] | TGI (SF-268 CNS) [µM] | TGI (SK-OV-3 ovarian) [µM] | TGI (MOLT-4 leukemia) [µM]
1 | Cc1nc2c(sc(=S)n2-c2ccccc2)c2nc3ncccc3n12 | > 100 | > 100 | > 100 | > 100 | > 100 | > 100 | > 100 | > 100 | > 100 | > 100 | > 100 | > 100 | > 100
2 | O=C1C(Cl)=C(N2CCN(C3=C(Cl)C(=O)c4ccccc4C3=O)CC2)C(=O)c2ccccc21 | 0.458 | 20.3 | 3.11 | 2.78 | 3.51 | 15.4 | 14 | 3.12 | 2.68 | 3.26 | 6.1 | 28 | 1.69
3 | C[N+]1=C2[B-](C(C)(C)C)=[N+](C(C)(C)C)[B-]2(C(C)(C)C)[N+](C)=C2[B-](C(C)(C)C)=[N+](C(C)(C)C)[B-]21C(C)(C)C (centres undefined) | > 100 | > 100 | > 100 | > 100 | > 100 | > 100 | > 100 | > 100 | > 100 | > 100 | > 100 | > 100 | > 100
4 | NC(C(F)(F)F)(C(F)(F)F)P(=O)(Cc1ccccc1)Cc1ccccc1 | > 100 | > 100 | > 100 | > 100 | > 100 | > 100 | > 100 | > 100 | > 100 | > 100 | > 100 | > 100 | > 100
5 | Brc1ccc(CCNCCN2CCCCC2)cc1 | > 100 | 31.7 | 37 | 28.3 | 59.5 | 30.2 | > 100 | 29.4 | 31.1 | 27.5 | 33.3 | 42 | > 100
6 | O=C(NNC(=S)Nc1ccc(Cl)cc1)c1cc(-c2ccccc2)nc2ccccc12 | 4.72 | 15.1 | 17.2 | 19.5 | 30.7 | 22.5 | 48 | 19.2 | 18.4 | 17.6 | 29.6 | 19.8 | 27.7
7 | COc1ccc(-n2c(=O)c3[nH]cnc3n(-c3ccc(OC)cc3)c2=S)cc1 | > 100 | > 100 | > 100 | > 100 | > 100 | > 100 | > 100 | > 100 | > 100 | > 100 | > 100 | > 100 | > 100
8 | COc1ccc(N2C(=O)C3c4[nH]c5ccc(OCc6ccccc6)cc5c4C4CCC(C(C)(C)C)CC4C3C2=O)cc1 (centres undefined) | > 100 | > 100 | > 100 | > 100 | > 100 | > 100 | > 100 | > 100 | > 100 | 81.8 | > 100 | > 100 | > 100
9 | OCCCCCNc1c2ccccc2nc2ccccc12 | > 23.2 | 7.2 | 5.47 | 4.77 | > 57.2 | 14.3 | 33.2 | 25.3 | 15.9 | 12.9 | 11.4 | 13.7 | > 63.3
10 | O=C(CCCCCCCCC(=O)NN1C(=O)/C(=C\c2ccc(O)c(O)c2)SC1c1ccc(Cl)cc1)NN1C(=O)/C(=C\c2ccc(O)c(O)c2)SC1c1ccc(Cl)cc1 (centres undefined) | 28.3 | > 100 | 41.8 | > 100 | > 100 | > 100 | > 31.6 | > 100 | > 100 | 34.4 | > 62.7 | > 90.9 | 15.3
11 | CCOc1cc(NC(C)=O)ccc1C(=O)NNC(=O)c1ccccc1OC(C)=O | > 34.7 | > 100 | > 100 | 52.5 | > 78.7 | > 100 | > 28.6 | > 100 | > 100 | > 90.3 | > 100 | > 100 | > 40.5
12 | O=C(O)c1c2c(cc3c1CC1(Cc4ccccc4C1)C3)CCC2 | > 100 | > 100 | > 100 | > 100 | > 100 | > 100 | > 100 | > 100 | > 100 | > 100 | > 100 | > 100 | > 100
13 | O=C1/C(=C/c2ccccc2)N=C(c2ccccc2)N1n1c(-c2ccccc2)nc2ccccc2c1=O | > 100 | > 100 | > 100 | > 100 | > 100 | > 100 | > 100 | > 100 | > 100 | > 100 | > 100 | > 100 | > 100
